Results on 1 substance are retold here after patent US20160271209A1, “ANTIBACTERIAL COMPOSITION” (ECO FRIENDLY INSTITUTE LIMITED., priority 2012, published 2016).

The subject of test [1] is Porphyromonas gingivalis ATCC 33277 strain. Briefly: Antibacterial activity against Porphyromonas gingivalis (1): 1 minute contact, colony count. The format is cell-based. The protocol:
The Porphyromonas gingivalis ATCC 33277 strain, a causative bacterium of periodontal disease, was cultured to the logarithmic phase in Enriched Tryptic Soy Broth (e-TSB). The culture medium was diluted with a citrate buffer (pH 4.5) containing 0.8% NaCl to adjust the number of bacteria (10^6 CFU/mL). Test solutions were prepared by dilution with sterilized purified water so as to contain the 5-fold concentrate of Prunus mume extract (3 mg/mL, 15 mg/mL as the extract before concentration), nisin (150 μg/mL), or nisin (150 μg/mL)+5-fold concentrate of Prunus mume extract (3 mg/mL, 15 mg/mL as the extract before concentration). The diluted culture medium (100 μL) was added to each test solution (5 mL). After contact of the bacterium with the test solution for 1 minute at room temperature, the mixture (100 μL) was added to and mixed with the e-TSB medium (5 mL), and the mixture (100 μL) was immediately plated on a blood agar medium under an anaerobic condition. The bacterium was cultured for 5 days under an anaerobic condition, and then the number of the colonies formed on the plate was counted. The results were as shown in Table 1 mentioned below and FIG. 1. In Table 1, “CFU” means colony-forming unit (the same shall apply to the following descriptions).

Test [2] concerns Porphyromonas gingivalis W83 strain. Put plainly: Antibacterial activity against Porphyromonas gingivalis (2): growth inhibition effect by turbidity at 600 nm. The format is cell-based. The conditions noted are these: FIG. 2, 48 hours culture. The protocol:
The Porphyromonas gingivalis W83 strain, a causative bacterium of periodontal disease, was cultured to the logarithmic phase in the brain heart infusion medium containing hemin (5 mg/L) and metidione (1 mg/L). The culture medium was diluted with a citrate buffer containing 0.8% NaCl to adjust the number of bacteria (10^6 CFU/mL). Test solutions were prepared by dilution with sterilized purified water so as to contain the 5-fold concentrate of Prunus mume extract (10 mg/mL, 50 mg/mL as the extract before concentration), nisin (20 μg/mL), or the 5-fold concentrate of Prunus mume extract (10 mg/mL, 50 mg/mL as the extract before concentration)+nisin ([…]), and serially diluted 2-fold on a 96-well plate. To each well (containing 50 μL of test solution), the brain heart infusion medium (140 μL) containing hemin (5 mg/L) and metidione (1 mg/L) and the cell suspension (10 μL) were added. After culture for 48 hours, turbidity of the culture was measured at 600 nm. For evaluation, growth inhibition effect (%) was calculated according to the equation: Growth inhibition effect (%)=(1−(Turbidity observed with test solution)/(Turbidity observed with sterilized water))×100.

Test [3] concerns Escherichia coli NBRC 3301 strain. Briefly: Antibacterial activity against Escherichia coli (1): contact for days, colony count. As to conditions: Table 2, nisin 10 μg/mL. The format is cell-based. The protocol:
The Escherichia coli NBRC 3301 strain, which is a Gram-negative bacterium, was cultured to the logarithmic phase in Tryptic Soy Broth (TSB). The culture medium was diluted with sterilized purified water to adjust the number of bacteria (10^3 to 10^4 CFU/mL). Test solutions were prepared by dilution with sterilized purified water so as to contain nisin (10 μg/mL), the 5-fold concentrate of Prunus mume extract (3 mg/mL, 15 mg/mL as the extract before concentration), or nisin (10 μg/mL)+5-fold concentrate of Prunus mume extract (3 mg/mL, 15 mg/mL as the extract before concentration). The diluted culture medium (10 μL) was added to each test solution (1 mL). After contact of the bacterium with the test solution at room temperature for a predetermined number of days (0 to 7 days), the mixture (100 μL) was plated on TBS agar medium. The bacterium was cultured for 48 hours, and then the number of the colonies formed on the plate was counted. The results are shown in Tables 2 and 3 mentioned below and FIGS. 3 and 4. In Tables 2 and 3, “D+n” means the number of days (n days) for the contact of the diluted culture medium and the test solution (the same shall apply to the following descriptions).

Test [4] relates to Gram-positive bacteria including acetic acid bacteria. The conditions noted are these: background statement; cited from earlier work.

As to nisin A, the “antibacterial activity against Porphyromonas gingivalis (in words)” value in test [1] (Example 1, Table 1 and FIG. 1) is “did not show any antibacterial activity at all”. In addition, in test [1] (after contact for 1 minute at room temperature, nisin 150 μg/mL, Prunus mume extract 3 mg/mL (5-fold concentrate)), the “Number of bacteria, After contact” value is 1.0 × 10^6 CFU/mL. The “Number of bacteria, Before contact” value in test [1] (before contact, nisin 150 μg/mL, Prunus mume extract 3 mg/mL (5-fold concentrate)) is on record as 1.0 × 10^6 CFU/mL. The “growth inhibition effect (in words)” value is given as “extremely low” in test [2] (2-fold serial dilution, overall) and “did not show any growth inhibition effect at all” in test [2] (at the 1/32 concentration (32-fold dilution)). Further, the “Number of bacteria, D + 0” value in test [3] (0 days contact) is recorded as 4,540 CFU/mL. For the same substance, the “Number of bacteria, D + 1” value in test [3] (1 day contact) is 1,740 CFU/mL. Besides, in test [3] (3 days contact), the “Number of bacteria, D + 3” value is recorded as 1,430 CFU/mL. Further, in test [3] (7 days contact), the “Number of bacteria, D + 7” value is reported as 290 CFU/mL. Besides, in test [4], the “concentration showing growth-suppressing effect” value is “about 1 ppb”.
